Results: patent EP2506856B1, “AMINOSTEROID COMPOUNDS FOR TOPIC LOCAL APPLICATION FOR SKIN-MUCOSA DECOLONISATION OF STAPHYLOCOCCUS AUREUS” (Assistance Publique Hôpitaux de Marseille, priority 2009, dated 2011)
In brackets after ≈: the same amount, converted by molar mass. Read-outs that look alike come from different tables or passages of the source.

Legend:
[1] = test system: S. aureus ATCC 25923; assay: MIC (CMI) determination on reference strain; assay type: cell-based, Staphylococcus aureus
Method: Les composés IIIa et IIIb (selon l'invention) avec R=-(CH2)n1-NHZ et n1=2 à 9 présentent une CMI de 2,5 à 20 µg/ml. Tableau 1 : CMI des dérivés III-a sur S. aureus ATCC 25923
(§1) Le composé III-1 présente la meilleure activité avec une CMI de 1µg/ml pour S. Aureus. Tableau 2 : CMI de la squalamine Ia et des dérivés II-1 et III-1 sur différentes souches de S. aureus.

[2] = test system: différentes souches de S. aureus (y compris des souches résistantes à la méticilline (MRSA)); settings: different S. aureus strains including MRSA; cited from earlier work
[3] = test system: S. aureus (souche de référence ATCC 25923); assay: Comparative mouse skin colonisation model, single application of ointment, counts at 30 minutes and 1 hour; assay type: in vivo, souris; settings: for activité de décolonisation par rapport à la squalamine et analogues: comparative ointments, 30 minutes and 1 hour
Method: On a également utilisé à fin de comparaisons une pommade à base de mupirocine (Bactroban®), d'acide fusidique (Fucidine®) ou de vancomycine et vaseline à titre de contrôle dans les mêmes conditions expérimentales. Ainsi, 10 µl d'une suspension bactérienne calibrée à 10^6 CFU/ml S. aureus a été appliquée sur la peau préalablement rasée d'une série de 6 souris sur deux quadrants différents (figure 4). Après 2 heures d'incubation et séchage, la pommade a été appliquée sur un des deux quadrants de peau contre une pommade contenant l'excipient seul sur l'autre quadrant. Les quantités de S. aureus, au temps 0 (avant application de la pommade) puis après 30 minutes et 1 heure d'application, ont été déterminées par écouvillonnage cutané et mise en culture sur milieu Chapman pour le dénombrement des colonies comme décrit précédemment.

[4] = test system: Staphylococcus aureus (MRSA); assay: MIC (CMI) determination on MRSA strain; assay type: cell-based; settings: read-out: CMI
Method: as §1

[5] = test system: S. aureus (souche de référence ATCC 25923); assay: Mouse skin colonisation model, single application of 1% ointment, counts at day 1 and day 2; assay type: in vivo, souris; settings: figure 4, from environ 10^6 CFU/ml at J0
Method: Afin de tester l'activité in vivo des composés, on a inventé un modèle expérimental de colonisation cutanéo-muqueuse à S. aureus chez la souris. […] Brièvement, 10 µl d'une suspension bactérienne calibrée à 10^8 CFU/ml S. aureus a été appliquée sur la peau préalablement rasée des souris sur deux quadrants différents (figure 3). La colonisation par S. aureus était ensuite suivie quotidiennement pendant 2 jours par écouvillonnage cutané des souris, reprise de l'écouvillon dans 1 ml d'eau stérile et mise en culture de 100 µl sur gélose Chapman à 37°C pendant 24 heures avant énumération des colonies bactériennes.
De la même manière, 10 µl d'une suspension bactérienne calibrée à 10^8 CFU/ml S. aureus a été appliquée sur la peau préalablement rasée d'une série de 4 souris sur deux quadrants différents (figure 3). […] Les quantités de S. aureus, au temps 0 (avant application de la pommade) puis aux jours 1 et 2 (J1 et J2) après application, ont été déterminées par écouvillonnage cutané et mise en culture sur milieu Chapman pour le dénombrement des colonies comme décrit précédemment.

[6] = test system: Staphylococcus aureus; settings: 1% ointment, 2 fois/jour for 48 heures before surgery, fosses nasales; cited from earlier work
[7] = test system: Staphylococcus; settings: au bout de 24 heures; cited from earlier work
[8] = Staphylococcus aureus, ATCC25923, read-out: CMI
[9] = from environ 2.10^4 CFU/ml at t=0, single application of 1% ointment
[10] = Staphylococcus aureus, ATCC25923, dérivés III-a, R=-(CH2)n1-NH2, S. aureus ATCC 25923, read-out: CMI

## CC(C)CCC[C@@H](C)[C@H]1CC[C@H]2[C@@H]3[C@@H](NCCCCN)C=C4C[C@@H](O)CC[C@]4(C)[C@H]3CC[C@]12C [II-1, 7β-(1,4-diaminobutane)-cholest-5-ene-3β-ol]
[1]; [8]
  MIC: 2 µg/mL (≈ 4.23 µM)
[2]
  CMI: 2 µg/mL
[3]; expected from the 60 minute result
  décolonisation escomptée en moins de 24 heures: ≥ 99,90%
[3]; [9]
  concentration au bout de 60 minutes: 55 CFU/ml
[4]; Staphylococcus aureus, MRSA
  MIC: 2 µg/mL (≈ 4.23 µM)

## C[C@H](NCCN)[C@H]1CC[C@H]2[C@@H]3CCC4=C[C@@H](NCCN)CC[C@]4(C)[C@H]3CC[C@]12C [III-a n1=2]
[1]; [10]
  MIC: 20 µg/mL (≈ 49.7 µM)

## C[C@H](NCCCN)[C@H]1CC[C@H]2[C@@H]3CCC4=C[C@@H](NCCCN)CC[C@]4(C)[C@H]3CC[C@]12C [III-a n1=3]
[1]; [10]
  MIC: 5 µg/mL (≈ 11.6 µM)

## C[C@H](NCCCCN)[C@H]1CC[C@H]2[C@@H]3CCC4=C[C@@H](NCCCCN)CC[C@]4(C)[C@H]3CC[C@]12C [III-a n1=4]
[1]; [8]
  MIC: 5 µg/mL (≈ 10.9 µM)

## C[C@H](NCCCCCN)[C@H]1CC[C@H]2[C@@H]3CCC4=C[C@@H](NCCCCCN)CC[C@]4(C)[C@H]3CC[C@]12C [III-a n1=5]
[1]; [10]
  MIC: 5 µg/mL (≈ 10.3 µM)

## C[C@H](NCCCCCCN)[C@H]1CC[C@H]2[C@@H]3CCC4=C[C@@H](NCCCCCCN)CC[C@]4(C)[C@H]3CC[C@]12C [III-a n1=6]
[1]; [10]
  MIC: 2.5 µg/mL (≈ 4.86 µM)

## C[C@H](NCCCCCCCN)[C@H]1CC[C@H]2[C@@H]3CCC4=C[C@@H](NCCCCCCCN)CC[C@]4(C)[C@H]3CC[C@]12C [III-a n1=7]
[1]; [8]
  MIC: 2.5 µg/mL (≈ 4.6 µM)

## C[C@H](NCCCCCCCCN)[C@H]1CC[C@H]2[C@@H]3CCC4=C[C@@H](NCCCCCCCCN)CC[C@]4(C)[C@H]3CC[C@]12C [III-a n1=8]
[1]; [10]
  MIC: 2.5 µg/mL (≈ 4.38 µM)

## C[C@H](NCCCCCCCCCN)[C@H]1CC[C@H]2[C@@H]3CCC4=C[C@@H](NCCCCCCCCCN)CC[C@]4(C)[C@H]3CC[C@]12C [III-a n1=9]
[1]; [10]
  MIC: 5 µg/mL (≈ 8.35 µM)

## CC(C)[C@@H](CC[C@@H](C)[C@H]1CC[C@H]2[C@@H]3[C@H](O)C[C@H]4C[C@@H](NCCCNCCCCN)CC[C@]4(C)[C@H]3CC[C@]12C)OS(=O)(=O)O [Ia, squalamine]
[1]; ATCC25923, Staphylococcus aureus ATCC 25923, read-out: CMI
  MIC: 2 µg/mL (≈ 3.18 µM)
[2]
  CMI: 2 µg/mL
[3]; 1% ointment, single application, figure 6
  diminution du nombre de CFU/ml après 1 heure: 4 logarithmes
[3]; [9]
  concentration à t=30 minutes: < 1 CFU/ml
[4]; Staphylococcus aureus (MRSA)
  MIC: 2 µg/mL (≈ 3.18 µM)
[5]
  concentration en bactéries Staphylococcus aureus à J1: 10^2 CFU/ml
  concentration en bactéries Staphylococcus aureus à J2: ~10^1 CFU/ml

## CC(=O)O[C@H]1C[C@@]2(C)[C@@H](C[C@@H](O)[C@H]3[C@@]4(C)CC[C@@H](O)[C@@H](C)[C@@H]4CC[C@@]32C)/C1=C(\CCC=C(C)C)C(=O)O [acide fusidique]
[3]
  activité de décolonisation par rapport à la squalamine et analogues: activité nettement moindre et moins rapide

## C/C(=C\C(=O)OCCCCCCCCC(=O)O)C[C@@H]1OC[C@H](C[C@@H]2O[C@H]2[C@@H](C)[C@H](C)O)[C@@H](O)[C@H]1O [mupirocine]
[3]
  activité de décolonisation par rapport à la squalamine et analogues: activité nettement moindre et moins rapide
[6]
  décolonisation des bactéries Staphylococcus aureus: 99,9%
[7]
  division de la concentration de bactéries Staphylococcus: 5.10^2 CFU/ml

## CN[C@H](CC(C)C)C(=O)N[C@H]1C(=O)N[C@@H](CC(N)=O)C(=O)N[C@H]2C(=O)N[C@H]3C(=O)N[C@H](C(=O)N[C@H](C(=O)O)c4cc(O)cc(O)c4-c4cc3ccc4O)[C@H](O)c3ccc(c(Cl)c3)Oc3cc2cc(c3O[C@@H]2O[C@H](CO)[C@@H](O)[C@H](O)[C@H]2O[C@H]2C[C@](C)(N)[C@H](O)[C@H](C)O2)Oc2ccc(cc2Cl)[C@H]1O [vancomycine]
[3]
  activité de décolonisation par rapport à la squalamine et analogues: activité nettement moindre et moins rapide
